pIC50: −log10 of the molar value.
Legend:
Assay in all cases: KAM-matrix competition in K562 lysate;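 for 0.001 uM KAM: median log10 fold change of treatment over DMSO control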;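 for 0.01 uM KAM: median log10 fold change of treatment over DMSO control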;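 for 0.1 uM KAM: median log10 fold change of treatment over DMSO control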;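 for 1 uM KAM: median log10 fold change of treatment over DMSO control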;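 for 10 uM KAM: median log10 fold change of treatment over DMSO control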
Format in all cases: binding
[1] = target: T1, ADRBK1 (Homo sapiens, UniProt P25098);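 for 0.001 uM KAM: median log10 fold change of treatment over DMSO control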;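 for 0.01 uM KAM: median log10 fold change of treatment over DMSO control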;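 for 0.1 uM KAM: median log10 fold change of treatment over DMSO control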;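 for 1 uM KAM: median log10 fold change of treatment over DMSO control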;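 for 10 uM KAM: median log10 fold change of treatment over DMSO control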
T1 construct: endogenous in cells; host or cells: K562
T1 sequence (P25098 1-689): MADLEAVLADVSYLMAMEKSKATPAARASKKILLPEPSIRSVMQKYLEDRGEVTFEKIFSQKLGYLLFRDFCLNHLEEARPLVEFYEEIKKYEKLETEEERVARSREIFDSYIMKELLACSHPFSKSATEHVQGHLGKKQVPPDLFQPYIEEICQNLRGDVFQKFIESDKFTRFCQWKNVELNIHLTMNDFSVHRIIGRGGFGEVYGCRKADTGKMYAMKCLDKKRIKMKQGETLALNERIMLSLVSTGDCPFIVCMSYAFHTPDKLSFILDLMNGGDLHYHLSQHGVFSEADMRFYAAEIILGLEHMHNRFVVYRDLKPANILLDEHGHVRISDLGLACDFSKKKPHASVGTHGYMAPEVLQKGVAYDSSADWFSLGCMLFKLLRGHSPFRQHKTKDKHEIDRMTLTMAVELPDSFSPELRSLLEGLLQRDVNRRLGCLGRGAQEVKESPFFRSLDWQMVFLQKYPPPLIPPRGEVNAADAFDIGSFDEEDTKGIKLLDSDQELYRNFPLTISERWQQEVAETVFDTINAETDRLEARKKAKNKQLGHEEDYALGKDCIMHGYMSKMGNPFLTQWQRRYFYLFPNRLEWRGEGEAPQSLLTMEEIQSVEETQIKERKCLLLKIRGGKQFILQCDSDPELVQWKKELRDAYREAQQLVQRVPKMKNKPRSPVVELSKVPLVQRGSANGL
Procedure: (§1) Supplement 12953_2017_125_MOESM1_ESM.zip/MS_Supp Info.xlsx, sheet "KAM" | column: 10 uM KAM; 1 uM KAM; 0.1 uM KAM; 0.01 uM KAM; 0.001 uM KAM; RB50

[2] = target: T2, CDC42BPA (Homo sapiens, UniProt Q5VT25);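 for 0.001 uM KAM: median log10 fold change of treatment over DMSO control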;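 for 0.01 uM KAM: median log10 fold change of treatment over DMSO control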;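 for 0.1 uM KAM: median log10 fold change of treatment over DMSO control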;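 for 1 uM KAM: median log10 fold change of treatment over DMSO control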;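 for 10 uM KAM: median log10 fold change of treatment over DMSO control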
T2 construct: endogenous in cells; host or cells: K562
Procedure: as §1

[3] = target: T3, MAP4K2 (Homo sapiens, UniProt Q12851)
T3 construct: endogenous in cells; host or cells: K562
T3 sequence (Q12851 1-820): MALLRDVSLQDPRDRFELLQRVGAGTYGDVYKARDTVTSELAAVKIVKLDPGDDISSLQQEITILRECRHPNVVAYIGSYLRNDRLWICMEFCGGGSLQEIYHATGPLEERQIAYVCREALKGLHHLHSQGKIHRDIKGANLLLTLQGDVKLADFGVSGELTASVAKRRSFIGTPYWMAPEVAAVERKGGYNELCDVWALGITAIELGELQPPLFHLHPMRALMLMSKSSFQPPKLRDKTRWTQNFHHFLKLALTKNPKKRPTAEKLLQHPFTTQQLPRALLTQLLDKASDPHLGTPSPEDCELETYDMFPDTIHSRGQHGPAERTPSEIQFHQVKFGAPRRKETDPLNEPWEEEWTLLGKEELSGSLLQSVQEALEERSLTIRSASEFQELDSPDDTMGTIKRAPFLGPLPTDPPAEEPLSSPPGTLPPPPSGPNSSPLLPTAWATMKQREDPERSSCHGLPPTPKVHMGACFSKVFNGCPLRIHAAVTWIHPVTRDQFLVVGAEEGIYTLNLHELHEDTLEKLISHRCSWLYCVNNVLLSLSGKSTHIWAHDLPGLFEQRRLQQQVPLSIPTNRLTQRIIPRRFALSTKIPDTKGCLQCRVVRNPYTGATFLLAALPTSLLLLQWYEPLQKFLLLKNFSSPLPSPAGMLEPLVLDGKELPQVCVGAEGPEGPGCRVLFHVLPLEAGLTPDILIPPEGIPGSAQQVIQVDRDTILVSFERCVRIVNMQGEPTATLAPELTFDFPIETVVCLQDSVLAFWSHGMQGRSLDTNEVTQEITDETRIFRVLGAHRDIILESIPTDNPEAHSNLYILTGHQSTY
Procedure: as §1

[4] = target: T4, PLK1 (Homo sapiens, UniProt P53350);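 for 0.001 uM KAM: median log10 fold change of treatment over DMSO control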;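 for 0.01 uM KAM: median log10 fold change of treatment over DMSO control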;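 for 0.1 uM KAM: median log10 fold change of treatment over DMSO control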;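 for 1 uM KAM: median log10 fold change of treatment over DMSO control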;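 for 10 uM KAM: median log10 fold change of treatment over DMSO control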
T4 construct: endogenous in cells; host or cells: K562
Procedure: as §1

[5] = target: T5, TGFBR1 (Homo sapiens, UniProt P36897)
T5 construct: endogenous in cells; host or cells: K562
T5 sequence (P36897 34-503): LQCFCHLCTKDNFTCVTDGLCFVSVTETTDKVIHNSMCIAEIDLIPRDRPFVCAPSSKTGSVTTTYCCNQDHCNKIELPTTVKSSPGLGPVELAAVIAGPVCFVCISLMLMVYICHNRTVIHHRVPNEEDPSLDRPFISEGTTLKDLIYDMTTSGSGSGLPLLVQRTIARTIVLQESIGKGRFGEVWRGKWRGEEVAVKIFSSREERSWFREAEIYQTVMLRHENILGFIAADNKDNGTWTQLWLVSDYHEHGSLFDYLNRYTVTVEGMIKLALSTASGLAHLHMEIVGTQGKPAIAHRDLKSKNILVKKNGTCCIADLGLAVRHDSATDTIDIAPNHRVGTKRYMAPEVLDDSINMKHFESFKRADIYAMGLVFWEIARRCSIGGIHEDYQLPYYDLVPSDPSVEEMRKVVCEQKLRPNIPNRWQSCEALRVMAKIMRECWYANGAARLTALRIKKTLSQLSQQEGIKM
Procedure: as §1

[6] = KAM 0.001-10 uM, read-out: RB50 (the source's name)
[7] = read-out: RB50 (the source's name)

T4 sequence (P53350 whole entry): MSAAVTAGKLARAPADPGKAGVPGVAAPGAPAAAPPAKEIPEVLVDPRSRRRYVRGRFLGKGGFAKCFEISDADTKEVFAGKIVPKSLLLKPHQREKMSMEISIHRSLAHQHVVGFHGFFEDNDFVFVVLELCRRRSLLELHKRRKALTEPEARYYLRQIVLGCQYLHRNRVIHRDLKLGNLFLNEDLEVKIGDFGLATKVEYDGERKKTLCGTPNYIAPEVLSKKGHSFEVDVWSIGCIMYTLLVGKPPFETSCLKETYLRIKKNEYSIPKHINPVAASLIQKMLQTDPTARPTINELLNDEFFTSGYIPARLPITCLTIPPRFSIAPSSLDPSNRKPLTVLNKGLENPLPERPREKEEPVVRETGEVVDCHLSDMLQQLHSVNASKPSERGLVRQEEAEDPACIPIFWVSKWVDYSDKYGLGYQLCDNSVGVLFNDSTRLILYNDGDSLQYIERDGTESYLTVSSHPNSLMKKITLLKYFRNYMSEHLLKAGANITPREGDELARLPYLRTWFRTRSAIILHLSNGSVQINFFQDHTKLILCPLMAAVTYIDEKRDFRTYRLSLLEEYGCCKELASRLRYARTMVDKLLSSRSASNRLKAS
T2 sequence (Q5VT25 whole entry): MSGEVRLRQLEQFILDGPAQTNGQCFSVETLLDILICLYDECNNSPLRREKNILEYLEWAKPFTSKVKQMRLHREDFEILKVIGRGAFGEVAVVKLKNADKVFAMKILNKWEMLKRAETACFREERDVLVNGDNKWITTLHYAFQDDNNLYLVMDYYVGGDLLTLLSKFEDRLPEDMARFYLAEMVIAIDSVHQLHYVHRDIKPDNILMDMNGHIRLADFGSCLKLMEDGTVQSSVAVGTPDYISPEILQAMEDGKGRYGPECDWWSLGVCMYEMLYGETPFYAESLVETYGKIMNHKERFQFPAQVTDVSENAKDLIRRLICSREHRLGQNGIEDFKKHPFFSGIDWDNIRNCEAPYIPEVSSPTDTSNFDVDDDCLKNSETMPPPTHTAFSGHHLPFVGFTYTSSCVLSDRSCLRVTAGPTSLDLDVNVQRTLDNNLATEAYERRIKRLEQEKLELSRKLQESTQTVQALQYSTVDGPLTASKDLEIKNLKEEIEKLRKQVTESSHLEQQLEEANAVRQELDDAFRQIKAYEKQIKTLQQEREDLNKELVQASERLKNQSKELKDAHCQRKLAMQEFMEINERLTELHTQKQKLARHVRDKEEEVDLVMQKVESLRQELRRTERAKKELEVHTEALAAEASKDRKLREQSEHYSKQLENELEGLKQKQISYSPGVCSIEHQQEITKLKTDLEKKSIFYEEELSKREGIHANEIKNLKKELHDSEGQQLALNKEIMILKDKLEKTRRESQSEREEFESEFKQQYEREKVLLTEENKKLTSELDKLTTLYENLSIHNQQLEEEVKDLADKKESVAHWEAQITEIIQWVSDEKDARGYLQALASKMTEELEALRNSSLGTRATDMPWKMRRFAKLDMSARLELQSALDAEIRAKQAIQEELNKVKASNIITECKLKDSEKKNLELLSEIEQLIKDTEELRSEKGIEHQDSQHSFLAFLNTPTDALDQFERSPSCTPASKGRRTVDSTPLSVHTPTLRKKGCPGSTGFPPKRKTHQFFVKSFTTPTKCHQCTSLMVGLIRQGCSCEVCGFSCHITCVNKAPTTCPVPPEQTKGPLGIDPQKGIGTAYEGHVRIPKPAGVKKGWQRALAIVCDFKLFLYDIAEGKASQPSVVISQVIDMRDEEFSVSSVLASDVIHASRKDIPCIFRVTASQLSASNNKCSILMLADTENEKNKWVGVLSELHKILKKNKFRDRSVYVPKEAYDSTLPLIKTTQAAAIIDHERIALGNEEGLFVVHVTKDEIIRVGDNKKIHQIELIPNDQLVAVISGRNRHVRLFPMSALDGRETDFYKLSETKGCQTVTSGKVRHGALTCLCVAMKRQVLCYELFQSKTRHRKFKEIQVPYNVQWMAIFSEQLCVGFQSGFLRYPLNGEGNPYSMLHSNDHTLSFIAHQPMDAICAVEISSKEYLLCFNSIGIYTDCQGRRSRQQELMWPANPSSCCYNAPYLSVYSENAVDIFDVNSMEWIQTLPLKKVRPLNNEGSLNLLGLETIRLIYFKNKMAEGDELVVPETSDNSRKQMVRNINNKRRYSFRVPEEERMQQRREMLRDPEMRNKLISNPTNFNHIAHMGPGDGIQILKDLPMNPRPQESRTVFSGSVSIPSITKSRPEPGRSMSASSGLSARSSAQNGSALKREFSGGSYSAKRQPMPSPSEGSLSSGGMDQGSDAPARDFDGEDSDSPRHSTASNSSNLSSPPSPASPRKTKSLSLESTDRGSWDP

Structure (SMILES): N#CCc1ccc(Nc2nc(NCCCN)cc(Nc3cc(C4CC4)[nH]n3)n2)cc1 [KAM]
- pIC50 [1, 6]: < 5.00
- 0.001 uM KAM ([1]; relative to 0 uM KAM = 0): 0.02352
- 0.01 uM KAM ([1]; relative to 0 uM KAM = 0): 0.07327
- 0.1 uM KAM ([1]; relative to 0 uM KAM = 0): 0.03347
- 1 uM KAM ([1]; relative to 0 uM KAM = 0): 0.04428
- 10 uM KAM ([1]; relative to 0 uM KAM = 0): 0.02417
- pIC50 [2, 6]: < 5.00
- 0.001 uM KAM ([2]; relative to 0 uM KAM = 0): -0.02138
- 0.01 uM KAM ([2]; relative to 0 uM KAM = 0): -0.0113
- 0.1 uM KAM ([2]; relative to 0 uM KAM = 0): -0.01108
- 1 uM KAM ([2]; relative to 0 uM KAM = 0): 0.04656
- 10 uM KAM ([2]; relative to 0 uM KAM = 0): -0.06135
- median Log10 fold change ([3]; 0.001 uM KAM): -0.01936
- median Log10 fold change ([3]; 0.01 uM KAM): -0.0303
- median Log10 fold change ([3]; 0.1 uM KAM): -0.2006
- median Log10 fold change ([3]; 1 uM KAM): -0.2485
- median Log10 fold change ([3]; 10 uM KAM): -0.341
- pIC50 [3, 7]: 5.65
- pIC50 [4, 6]: < 5.00
- 0.001 uM KAM ([4]; relative to 0 uM KAM = 0): -0.04372
- 0.01 uM KAM ([4]; relative to 0 uM KAM = 0): 0.0006975
- 0.1 uM KAM ([4]; relative to 0 uM KAM = 0): -0.07002
- 1 uM KAM ([4]; relative to 0 uM KAM = 0): -0.1195
- 10 uM KAM ([4]; relative to 0 uM KAM = 0): -0.1377
- median Log10 fold change ([5]; 0.001 uM KAM): 0.003086
- median Log10 fold change ([5]; 0.01 uM KAM): -0.03819
- median Log10 fold change ([5]; 0.1 uM KAM): -0.2662
- median Log10 fold change ([5]; 1 uM KAM): -0.4673
- median Log10 fold change ([5]; 10 uM KAM): -0.5096
- pIC50 [5, 7]: 6.69
